Reference: US11426436B2, “Bacteria-comprising compositions and methods of using the same for treating and/or preventing gastrointestinal, metabolic and/or other diseases” (priority 2015, dated 2022)
In brackets after ≈: the same amount, converted by molar mass. Read-outs that look alike come from different tables or passages of the source.

Legend:
[1] = system: Intestinimonas strain AF211; test: Antibiotic sensitivity (MIC) of Intestinimonas strain AF211; assay type: cell-based, Intestinimonas butyriciproducens
Description: “Minimum inhibitory concentration” or “MIC” as used herein refers to the lowest concentration of an antimicrobial that will inhibit the visible growth of a microorganism after overnight incubation. Minimum inhibitory concentrations are important in diagnostic laboratories to confirm resistance of microorganisms to an antimicrobial agent and also to monitor the activity of new antimicrobial agents. An MIC is generally regarded as the most basic laboratory measurement of the activity of an antimicrobial agent against an organism.
Rettedal et al. (Nature Comm. (2014), 5:4714) describe the use of antibiotics to isolate and culture bacteria from the human intestinal tract. However, this approach often results in antibiotic-resistant bacteria and these are undesired in formulations aimed for human or animal use.
Strain AF211 had the following sensitivity to various antibiotics: […]

[2] = system: Intestinimonas strain P1C2; conditions: against Intestinimonas strain P1C2, described as resistant; cited from earlier work
[3] = Intestinimonas butyriciproducens, against strain AF211, read-out: MIC

CC[C@H]1OC(=O)[C@H](C)[C@@H](O[C@H]2C[C@@](C)(OC)[C@@H](O)[C@H](C)O2)[C@H](C)[C@@H](O[C@@H]2O[C@H](C)C[C@H](N(C)C)[C@H]2O)[C@](C)(O)C[C@@H](C)C(=O)[C@H](C)[C@@H](O)[C@]1(C)O [Erythromycin]
MIC ([1]; Intestinimonas butyriciproducens, against strain AF211, text value, read-out: MIC of erythromycin): 1 µg/mL | MIC [1, 3]: 0.75 to 1 µg/mL (≈ 1.02 to 1.36 µM) | MIC of erythromycin [2]: 32 µg/mL

Cc1onc(-c2ccccc2)c1C(=O)N[C@@H]1C(=O)N2[C@@H]1SC(C)(C)[C@@H]2C(=O)O [Oxacillin]
MIC [1, 3]: 0.38 µg/mL (≈ 0.947 µM)

NC[C@H]1O[C@H](O[C@H]2[C@H](O)[C@@H](O[C@H]3O[C@H](CO)[C@@H](O)[C@H](N)[C@H]3O)[C@H](N)C[C@@H]2N)[C@H](N)C[C@@H]1O [Tobramycin]
MIC [1, 3]: 2 µg/mL (≈ 4.28 µM)

CN[C@H](CC(C)C)C(=O)N[C@H]1C(=O)N[C@@H](CC(N)=O)C(=O)N[C@H]2C(=O)N[C@H]3C(=O)N[C@H](C(=O)N[C@H](C(=O)O)c4cc(O)cc(O)c4-c4cc3ccc4O)[C@H](O)c3ccc(c(Cl)c3)Oc3cc2cc(c3O[C@@H]2O[C@H](CO)[C@@H](O)[C@H](O)[C@H]2O[C@H]2C[C@](C)(N)[C@H](O)[C@H](C)O2)Oc2ccc(cc2Cl)[C@H]1O [Vancomycin]
MIC ([1]; Intestinimonas butyriciproducens, AF211): 0.75 µg/mL (≈ 0.518 µM)

Teicoplanin
MIC ([1]; against strain AF211): 0.047 µg/mL
